The results in this text go back to US9101616B2, “Aryl substituted carboxamide derivatives as calcium or sodium channel blockers” (RaQualia Pharma Inc., priority 2009, dated 2015).

SMILES strings stand for the structures.

The experiment deals with T1, human T-type channel alpha-1H (CaV 3.2) (Homo sapiens, UniProt O95180).
T1 construct: expressed in transfected cells; host or cells: HEK 293
Briefly: Ca2+ Influx Assay (cell-based fluorescent, FDSS). To be noted: HEK 293 cells expressing human CaV 3.2. The procedure: Inhibition of T-type calcium channel activity was determined by cell-based flu-orescent Ca^2+ influx assay, in which potassium ionophore was added to decrease resting membrane potential and extra-cellular high-K^+ stimulation was used to modulate the membrane potential of the cell. The changes in fluorescent signal were monitored by the cell imaging technology by Hamamatsu Photonics's Functional Drug Screening System (FDSS).
HEK 293 cells expressing the human T-type channel alpha-1H (CaV 3.2) were maintained in DMEM supplemented with 10% heat-inactivated FBS, 100 units/ml Penicillin, 100 microg/ml Streptomycin, 150 microg/ml Zeocin, 300 microg/ml Geneticin. The cells were grown in a 5% CO2 humidified incubator at 37° C.
• 1. Cells were harvested and seeded in a poly-D-lysine coated black-sided clear bottom 384-well plate at density of 10,000 cells/well at 24 hours prior to assay. • 2. Incubate at 37° C. in 5% CO2. Day Two: • 1. Wash each well with assay buffer (see below) and leave 20 RI using plate washer, ELx-405 Select CW (BIO-TEK). • 2. Add 20 μL of assay buffer containing 6 μM Fluo-4-AM (Molecular Probes) and 0.005% Pluronic F-127 to each well. • 3. Incubate the plate at 37° C. for 1 hour. • 4. Wash each well assay buffer (see below) and leave 20 μl using plate washer, ELx-405 Select CW (BIO-TEK). • 5. Add 10 μl of compound solution into each well by FDSS6000 and leave the plate for 4.5 min, and then add 10 μl of potassium ionophore solution. • 6. Add 20 μl of high-K^+ depolarizing solution (see below) and monitor the change of fluorescent signal.
The IC50 values for compounds of the present invention were determined from 7-point dose-response studies. Curves were generated using the average of duplicate wells for each data point. Finally, the IC50 values are calculated with the best-fit dose curve determined by XLfit.

T1 sequence (O95180 whole entry): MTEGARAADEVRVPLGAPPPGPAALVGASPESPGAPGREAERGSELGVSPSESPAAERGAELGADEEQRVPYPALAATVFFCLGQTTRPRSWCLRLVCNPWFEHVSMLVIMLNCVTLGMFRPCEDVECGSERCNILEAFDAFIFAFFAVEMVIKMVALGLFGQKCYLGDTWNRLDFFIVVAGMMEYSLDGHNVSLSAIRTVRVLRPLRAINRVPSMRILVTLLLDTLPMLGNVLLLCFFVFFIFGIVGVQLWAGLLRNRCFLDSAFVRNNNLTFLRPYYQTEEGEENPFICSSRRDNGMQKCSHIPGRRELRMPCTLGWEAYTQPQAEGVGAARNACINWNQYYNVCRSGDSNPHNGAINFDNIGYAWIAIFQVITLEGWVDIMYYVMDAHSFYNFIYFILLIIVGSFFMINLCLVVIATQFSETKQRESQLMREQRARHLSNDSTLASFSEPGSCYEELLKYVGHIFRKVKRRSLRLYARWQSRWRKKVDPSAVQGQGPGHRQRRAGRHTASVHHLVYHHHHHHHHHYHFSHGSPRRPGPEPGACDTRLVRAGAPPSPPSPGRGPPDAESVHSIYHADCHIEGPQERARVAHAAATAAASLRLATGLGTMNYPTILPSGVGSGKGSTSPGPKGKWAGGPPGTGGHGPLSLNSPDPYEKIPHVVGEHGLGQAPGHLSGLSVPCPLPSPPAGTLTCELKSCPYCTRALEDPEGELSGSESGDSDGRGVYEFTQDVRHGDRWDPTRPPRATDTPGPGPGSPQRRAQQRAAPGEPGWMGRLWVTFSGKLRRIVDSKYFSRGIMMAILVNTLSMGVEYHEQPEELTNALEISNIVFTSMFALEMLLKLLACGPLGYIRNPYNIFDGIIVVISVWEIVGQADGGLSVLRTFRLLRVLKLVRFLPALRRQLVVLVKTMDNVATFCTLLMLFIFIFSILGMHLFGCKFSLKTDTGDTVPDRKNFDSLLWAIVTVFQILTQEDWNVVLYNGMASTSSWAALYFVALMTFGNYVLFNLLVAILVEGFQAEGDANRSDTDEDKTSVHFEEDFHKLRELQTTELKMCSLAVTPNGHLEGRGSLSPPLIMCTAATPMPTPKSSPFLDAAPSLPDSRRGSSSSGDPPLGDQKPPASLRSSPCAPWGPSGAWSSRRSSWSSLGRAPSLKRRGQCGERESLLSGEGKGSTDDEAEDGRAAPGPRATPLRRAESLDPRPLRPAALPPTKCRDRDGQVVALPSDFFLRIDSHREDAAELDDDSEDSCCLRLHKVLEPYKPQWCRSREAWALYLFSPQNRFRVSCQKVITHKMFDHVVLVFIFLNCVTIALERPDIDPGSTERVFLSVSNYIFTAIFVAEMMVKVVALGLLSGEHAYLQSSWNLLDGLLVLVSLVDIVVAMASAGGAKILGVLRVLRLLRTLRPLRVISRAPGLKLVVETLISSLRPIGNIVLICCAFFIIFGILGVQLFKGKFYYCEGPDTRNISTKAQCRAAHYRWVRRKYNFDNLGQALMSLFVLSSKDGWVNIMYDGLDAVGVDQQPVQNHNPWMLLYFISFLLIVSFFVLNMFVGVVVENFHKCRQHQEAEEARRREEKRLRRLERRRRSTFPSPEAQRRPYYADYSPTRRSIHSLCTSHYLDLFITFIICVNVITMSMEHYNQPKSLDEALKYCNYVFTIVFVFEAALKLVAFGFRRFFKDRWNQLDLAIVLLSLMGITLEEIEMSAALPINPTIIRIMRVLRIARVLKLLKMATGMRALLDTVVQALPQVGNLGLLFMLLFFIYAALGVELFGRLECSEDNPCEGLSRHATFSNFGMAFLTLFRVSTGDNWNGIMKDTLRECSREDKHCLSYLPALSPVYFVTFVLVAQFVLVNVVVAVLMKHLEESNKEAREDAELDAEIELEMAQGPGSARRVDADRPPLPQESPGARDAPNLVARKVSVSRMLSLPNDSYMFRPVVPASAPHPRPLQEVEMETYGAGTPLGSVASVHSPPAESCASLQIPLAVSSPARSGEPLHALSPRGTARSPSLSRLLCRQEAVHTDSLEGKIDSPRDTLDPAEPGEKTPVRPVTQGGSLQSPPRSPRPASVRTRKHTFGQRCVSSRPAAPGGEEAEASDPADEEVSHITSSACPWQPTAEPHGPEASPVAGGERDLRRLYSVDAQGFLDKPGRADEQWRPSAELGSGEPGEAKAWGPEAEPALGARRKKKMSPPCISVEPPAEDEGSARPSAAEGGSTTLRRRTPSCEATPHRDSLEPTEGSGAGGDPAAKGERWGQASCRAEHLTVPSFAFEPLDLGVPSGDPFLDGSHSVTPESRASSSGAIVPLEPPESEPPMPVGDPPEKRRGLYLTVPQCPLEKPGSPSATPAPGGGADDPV

As a reminder, the IC50 is the midpoint of a concentration-inhibition curve. Low readings indicate higher potency, high ones lower potency. With `C[C@@H](NC(=O)C1CC1c1cc2cc(F)ccc2[nH]1)c1cnc(OCC(F)(F)F)cn1` (stereo in doubt) [Example 171, trans-2-(5-fluoro-1H-indol-2-yl)-N-((R)-1-(5-(2,2,2-trifluoroethoxy)pyrazin-2-yl)ethyl)cyclopropanecarboxamide], the IC50 was at most 300 nM.
In turn, `C[C@@H](NC(=O)C1CC1c1ccc2ccn(CC3(C)COC3)c2c1)c1ccc(OCC(F)(F)F)nc1` (stereo in doubt) [Example 213, trans-2-(1-((3-methyloxetan-3-yl)methyl)-1H-indol-6-yl)-N-((R)-1-(6-(2,2,2-trifluoro-ethoxy)pyridin-3-yl)ethyl)cyclopropanecarboxamide] showed an IC50 of at most 300 nM.
`C[C@@H](NC(=O)[C@H]1C[C@@H]1c1cccc(OCc2ccccc2)c1)c1ccc(OCC(F)(F)F)cn1` (stereo in doubt) [Example 240, (1S*,2S*)-2-(3-(benzyloxy)phenyl)-N-((R)-1-(5-(2,2,2-trifluoroethoxy)pyridin-2-yl)ethyl)cyclopropanecarboxamide] returned an IC50 of at most 300 nM.
The compound `C[C@@H](NC(=O)[C@H]1C[C@@H]1c1nc2ccccc2[nH]1)c1ccc(OCC(F)(F)F)nc1` (relative stereo) [Example 287, (1S*,2S*)-2-(1H-benzo[d]imidazol-2-yl)-N-((R)-1-(6-(2,2,2-trifluoroethoxy)pyridin-3-yl)ethyl)cyclopropanecarboxamide] showed a 50% inhibitory concentration (IC50) of at most 300 nM.
Regarding `C[C@@H](NC(=O)[C@H]1C[C@@H]1c1cccc(OCc2ccccn2)c1)c1ccc(OCC(F)(F)F)cn1` (relative stereo) [Example 306, (1S*,2S*)-2-(3-(pyridin-2-ylmethoxy)phenyl)-N-((R)-1-(5-(2,2,2-trifluoroethoxy)pyridin-2-yl)ethyl)cyclopropanecarboxamide], the half-maximal inhibitory concentration (IC50) was at most 300 nM.
The compound `C[C@@H](NC(=O)[C@H]1C[C@@H]1c1cccc2cc[nH]c12)c1cnc(OCC(F)(F)F)cn1` (relative stereo) [Example 322, (1S*,2S*)-2-(1H-indol-7-yl)-N-((R)-1-(5-(2,2,2-trifluoroethoxy)pyrazin-2-yl)ethyl)cyclopropanecarboxamide] displayed an IC50 of at most 300 nM.
The compound `Cc1cc(OCC(F)(F)F)cnc1[C@@H](C)NC(=O)CCc1c[nH]c2ccccc12` [Example 104, (R)-3-(1H-indol-3-yl)-N-(1-(3-methyl-5-(2,2,2-trifluoroethoxy)pyridin-2-yl)ethyl)propanamide] had an IC50 of at most 300 nM.
Turning to `C[C@@H](NC(=O)[C@H]1C[C@@H]1c1ccc(F)cc1Cl)c1ccc(OCC(F)(F)F)cn1` (relative stereo) [Example 246, (1S*,2S*)-2-(2-chloro-4-fluorophenyl)-N-((R)-1-(5-(2,2,2-trifluoroethoxy)pyridin-2-yl)ethyl)cyclopropanecarboxamide], the IC50 was at most 300 nM.
`C[C@@H](NC(=O)C1CC1c1c[nH]c2ccc(F)cc12)c1ccc(OCC(F)(F)F)cn1` (stereo in doubt) [Example 110, trans-2-(5-fluoro-1H-indol-3-yl)-N-((R)-1-(5-(2,2,2-trifluoroethoxy)pyridin-2-yl)ethyl)cyclopropanecarboxamide]: the half-inhibitory concentration (IC50) is at most 300 nM.
With `C[C@@H](NC(=O)[C@@H]1C[C@H]1c1nc2ccccc2[nH]1)c1ccc(OCC(F)(F)F)cn1` (relative stereo) [Example 260, (1R*,2R*)-2-(1H-benzo[d]imidazol-2-yl)-N-((R)-1-(5-(2,2,2-trifluoroethoxy)pyridin-2-yl)ethyl)cyclopropanecarboxamide], the IC50 is at most 300 nM.
`C[C@@H](NC(=O)[C@H]1C[C@@H]1c1cc(F)ccc1F)c1ccc(OCC(F)(F)F)cn1` (relative stereo) [Example 327, (1S*,2S*)-2-(2,5-difluorophenyl)-N-((R)-1-(5-(2,2,2-trifluoroethoxy)pyridin-2-yl)ethyl)cyclopropanecarboxamide] returned an IC50 of at most 300 nM.
With `C[C@@H](NC(=O)C1CC1c1ccc2ccn(C)c2c1)c1ccc(OCC(F)(F)F)cn1` (stereo in doubt) [Example 167, trans-2-(1-methyl-1H-indol-6-yl)-N-((R)-1-(5-(2,2,2-trifluoroethoxy)pyridin-2-yl)ethyl)cyclopropanecarboxamide] the figure was at most 300 nM; with `C[C@@H](NC(=O)[C@H]1C[C@@H]1c1cc(F)cc(F)c1)c1ccc(OCC(F)(F)F)cn1` (relative stereo) [Example 253, (1S*,2S*)-2-(3,5-difluorophenyl)-N-((R)-1-(5-(2,2,2-trifluoroethoxy)pyridin-2-yl)ethyl)cyclopropanecarboxamide], at most 300 nM.
The compound `C[C@@H](NC(=O)[C@@H]1C[C@H]1c1cc2ccccc2[nH]1)c1ccc(OCC(F)(F)F)nc1` (relative stereo) [Example 224, (1R*,2R*)-2-(1H-indol-2-yl)-N-((R)-1-(6-(2,2,2-trifluoroethoxy)pyridin-3-yl)ethyl)cyclopropanecarboxamide] had an IC50 of at most 300 nM.
With `C[C@@H](NC(=O)C1CC1c1cc2ccccc2cn1)c1ccc(OCC(F)(F)F)cn1` (stereo in doubt) [Example 172, trans-2-(isoquinolin-3-yl)-N-((R)-1-(5-(2,2,2-trifluoroethoxy)pyridin-2-yl)ethyl)cyclopropanecarboxamide], the IC50 was at most 300 nM.
Turning to `C[C@@H](NC(=O)[C@H]1C[C@@H]1c1ccc(OCc2ccccn2)cc1)c1ccc(OCC(F)(F)F)cn1` (relative stereo) [Example 305, (1S*,2S*)-2-(4-(pyridin-2-ylmethoxy)phenyl)-N-((R)-1-(5-(2,2,2-trifluoroethoxy)pyridin-2-yl)ethyl)cyclopropanecarboxamide], the IC50 was at most 300 nM.
The compound `C[C@@H](NC(=O)[C@@H]1C[C@H]1c1ccc2ccccc2n1)c1cnc(OCC(F)(F)F)cn1` (relative stereo) [Example 222, (1R*,2R*)-2-(quinolin-2-yl)-N-((R)-1-(5-(2,2,2-trifluoroethoxy)pyrazin-2-yl)ethyl)cyclopropanecarboxamide] returned an IC50 of at most 300 nM.
Regarding `C[C@@H](NC(=O)[C@H]1C[C@@H]1c1cc2ccccc2[nH]1)c1ccc(OCC(F)(F)F)nc1` (relative stereo) [Example 223, (1S*,2S*)-2-(1H-indol-2-yl)-N-((R)-1-(6-(2,2,2-trifluoroethoxy)pyridin-3-yl)ethyl)cyclopropanecarboxamide], the IC50 was at most 300 nM.
With `C[C@@H](NC(=O)[C@@H]1C[C@H]1c1c[nH]c2ccccc12)c1ccc(OCC(F)(F)F)cn1` (relative stereo) [Example 134, (1R*,2R*)-2-(1H-indol-3-yl)-N-((R)-1-(5-(2,2,2-trifluoroethoxy)pyridin-2-yl)ethyl)cyclopropanecarboxamide] the figure was at most 300 nM.
For `C[C@@H](NC(=O)[C@@H]1C[C@H]1c1ccc2ccccc2n1)c1ccc(OCC(F)(F)F)cn1` (relative stereo) [Example 325, (1R*,2R*)-2-(quinolin-2-yl)-N-((R)-1-(5-(2,2,2-trifluoroethoxy)pyridin-2-yl)ethyl)cyclopropanecarboxamide] the value was at most 300 nM; for `C[C@@H](NC(=O)[C@@H]1C[C@H]1c1cccc2cc[nH]c12)c1cnc(OCC(F)(F)F)cn1` (relative stereo) [Example 323, (1R*,2R*)-2-(1H-indol-7-yl)-N-((R)-1-(5-(2,2,2-trifluoroethoxy)pyrazin-2-yl)ethyl)cyclopropanecarboxamide], at most 300 nM; for `C[C@@H](NC(=O)C1CC1c1nc2ccccc2n1C)c1ccc(OCC(F)(F)F)nc1` (stereo in doubt) [Example 245, trans-2-(1-methyl-1H-benzo[d]imidazol-2-yl)-N-((R)-1-(6-(2,2,2-trifluoroethoxy)pyridin-3-yl)ethyl)cyclopropanecarboxamide], at most 300 nM.
Take `C[C@@H](NC(=O)C1CC1c1ccc2cc[nH]c2c1)c1ccc(OCC(F)(F)F)nc1` (stereo in doubt) [Example 147, trans-2-(1H-indol-6-yl)-N-((R)-1-(6-(2,2,2-trifluoroethoxy)pyridin-3-yl)ethyl)cyclopropanecarboxamide]: the IC50 is at most 300 nM.
For `COc1ccc([C@H]2C[C@@H]2C(=O)N[C@H](C)c2ccc(OCC(F)(F)F)cn2)cc1` (relative stereo) [Example 259, (1S*,2S*)-2-(4-methoxyphenyl)-N-((R)-1-(5-(2,2,2-trifluoroethoxy)pyridin-2-yl)ethyl)cyclopropanecarboxamide] the value was at most 300 nM.
For `C[C@@H](NC(=O)[C@@H]1C[C@H]1c1cccc2[nH]ccc12)c1cnc(OCC(F)(F)F)cn1` (relative stereo) [Example 279, (1R*,2R*)-2-(1H-Indol-4-yl)-N-((R)-1-(5-(2,2,2-trifluoroethoxy)pyrazin-2-yl)ethyl)cyclopropanecarboxamide] the value was at most 300 nM.
